Test results reported in patent US20100160359A1, “Modulators of Metabolism and the Treatment of Disorders Related Thereto” (ARENA PHARMACEUTICALS, INC., priority 2005, published 2010).
Converted amounts (≈) assume the structure as drawn.

Key:
CYP2C9 = CYP2C9 (Homo sapiens, UniProt P11712); test: P450 inhibition screening assay, CYP2C9; format: in vitro ADME; details: cDNA expressed human enzyme, fluorescent substrate DBF; read-out: IC50 against the CYP2C9 enzyme
Description: (§1) The P450 inhibition screening assay was performed in 96-well microtiter plates by using cDNA expressed human enzymes (CYP1A2, 2C9, 2C19, 2D6 and 3A4). […] The enzymatic reaction was initiated by adding individual P450 enzymes pre-mixed with P450-specific fluorescent substrates, and stopped by adding acetonitrile (or NaOH for DBF assays) to the reaction mixture after incubation at 37° C. for a given amount of time. The fluorescence of metabolites was measured on a Biotek fluorescence reader. The results were expressed as inhibition percentage relative to the control (no test compound). IC50 values were estimated from the concentration response curve. […] Test compounds are classified into three categories based on their IC50 values.

CYP1A2 = biological target: T1, CYP1A2 (Homo sapiens, UniProt P05177); test: P450 inhibition screening assay, CYP1A2; format: in vitro ADME; details: cDNA expressed human enzyme, fluorescent substrate CEC
T1 sequence (P05177 1-516): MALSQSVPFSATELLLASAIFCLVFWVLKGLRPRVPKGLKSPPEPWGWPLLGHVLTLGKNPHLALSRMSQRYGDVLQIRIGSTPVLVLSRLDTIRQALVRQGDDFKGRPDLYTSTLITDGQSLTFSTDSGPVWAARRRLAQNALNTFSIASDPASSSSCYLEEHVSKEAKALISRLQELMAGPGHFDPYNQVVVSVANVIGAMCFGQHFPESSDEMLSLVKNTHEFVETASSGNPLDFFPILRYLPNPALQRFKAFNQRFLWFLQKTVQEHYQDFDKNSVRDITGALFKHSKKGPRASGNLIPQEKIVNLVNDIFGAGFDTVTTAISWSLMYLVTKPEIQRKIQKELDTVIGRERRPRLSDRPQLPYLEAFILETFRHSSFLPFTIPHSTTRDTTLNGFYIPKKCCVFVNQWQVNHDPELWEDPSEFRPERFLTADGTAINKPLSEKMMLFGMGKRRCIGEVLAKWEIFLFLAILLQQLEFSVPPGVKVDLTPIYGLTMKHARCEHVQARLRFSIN
Description: as §1

CYP2D6 = CYP2D6 (Homo sapiens, UniProt P10635); test: P450 inhibition screening assay, CYP2D6; format: in vitro ADME; details: cDNA expressed human enzyme, fluorescent substrate AMMC
Description: as §1

CYP3A4 = CYP3A4 (Homo sapiens, UniProt P08684); test: P450 inhibition screening assay, CYP3A4; format: in vitro ADME; details: cDNA expressed human enzyme, fluorescent substrates
Description: as §1

CYP2C19 = CYP2C19 (Homo sapiens, UniProt P33261); test: P450 inhibition screening assay, CYP2C19; format: in vitro ADME; details: cDNA expressed human enzyme, fluorescent substrate DBF
Description: as §1

[1] = Solubility determination in water (HPLC); format: physicochemical; details: thermodynamic from solid, about 25° C., equilibrated no less than 12 hours, read-out: aqueous solubility
Description: The vial contents were mixed for 30 seconds using a VWR mini vortexter followed by sonication (Branson 1510) for 1 minutes. Vials were placed into a constant temperature bath (i.e., about 25° C.) and allowed to equilibrate for no less than 12 hours. The resulting suspensions were transferred to eppendorf tubes each equipped with a 0.2 μm nylon filter (Costar 8168) and were centrifuged for 10 minutes at 14,000 rpms. The supernatant from each eppendorf tube was collected and diluted with HPLC grade acetonitrile with dilution factor of 200, 400 or 500. Each solution was analyzed by an HPLC method. […]
Quantification was effected by comparison of the HPLC peak area for each test solution with the peak area taken from a standard plot of concentration versus peak area for standards of known concentration. As is conventional, the standard concentrations for 4-[5-methyl-6-(2-methyl-pyridin-3-yloxy)-pyrimidin-4-yloxy]piperidine-1-carboxylic acid isopropyl ester were selected to fall within a linear range of concentration versus absorbance for the UV detector employed. […]

Male Sprague Dawley rats = test: Oral glucose tolerance test (oGTT) in rats; format: in vivo; details: rat oGTT, dextrose 3 g/kg
Description: General Procedure—Oral Glucose Tolerance Test (oGTT)
Male Sprague Dawley rats (Harlan, San Diego, Calif.) weighing approximately 350-375 g were fasted for 16 hours and randomly grouped (n=6) to receive a RUP3 agonist at 0.3, 3 or 30 mg/kg. Compounds were delivered orally via a gavage needle (p.o., volume 2 mL/kg). At time 0, levels of blood glucose were assessed using a glucometer (Accu-Chek Advantage, Roche Diagnostics), and rats were administered either vehicle (20% hydroxypropyl-beta-cyclodextrin) or test compound. Thirty minutes after administration of test compound, levels of blood glucose were again assessed, and rats were administered dextrose orally at a dose of 3 g/kg. Blood glucose measurements were then taken 30 min, 60 min, and 120 min after this time.

CYP3A4, sequence (P08684 whole entry): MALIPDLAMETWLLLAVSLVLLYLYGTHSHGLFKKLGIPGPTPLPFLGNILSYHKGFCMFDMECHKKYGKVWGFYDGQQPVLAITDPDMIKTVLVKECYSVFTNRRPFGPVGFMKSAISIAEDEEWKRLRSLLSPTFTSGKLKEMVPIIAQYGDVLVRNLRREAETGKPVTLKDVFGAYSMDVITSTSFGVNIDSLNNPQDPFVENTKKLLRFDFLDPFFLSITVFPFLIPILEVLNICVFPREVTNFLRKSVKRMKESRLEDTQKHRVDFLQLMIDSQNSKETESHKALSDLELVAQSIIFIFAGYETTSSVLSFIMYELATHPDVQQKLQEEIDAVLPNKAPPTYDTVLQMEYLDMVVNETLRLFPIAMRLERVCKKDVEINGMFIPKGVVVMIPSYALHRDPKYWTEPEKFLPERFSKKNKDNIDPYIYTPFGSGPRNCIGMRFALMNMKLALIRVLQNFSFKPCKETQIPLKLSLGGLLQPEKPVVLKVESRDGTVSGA
CYP2D6, sequence (P10635 whole entry): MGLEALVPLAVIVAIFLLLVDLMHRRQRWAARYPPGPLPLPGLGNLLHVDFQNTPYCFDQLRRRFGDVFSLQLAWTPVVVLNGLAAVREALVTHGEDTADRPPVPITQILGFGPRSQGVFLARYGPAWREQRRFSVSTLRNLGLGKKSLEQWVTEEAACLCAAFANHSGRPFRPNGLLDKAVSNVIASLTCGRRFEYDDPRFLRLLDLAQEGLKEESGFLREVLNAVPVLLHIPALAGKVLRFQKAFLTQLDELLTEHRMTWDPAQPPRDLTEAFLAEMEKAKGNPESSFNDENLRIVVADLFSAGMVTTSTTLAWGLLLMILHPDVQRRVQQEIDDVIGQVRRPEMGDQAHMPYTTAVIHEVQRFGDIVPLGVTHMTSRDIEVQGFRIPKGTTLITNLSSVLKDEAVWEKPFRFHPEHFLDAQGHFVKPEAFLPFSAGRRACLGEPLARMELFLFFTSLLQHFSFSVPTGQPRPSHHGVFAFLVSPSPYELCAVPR
CYP2C19, sequence (P33261 whole entry): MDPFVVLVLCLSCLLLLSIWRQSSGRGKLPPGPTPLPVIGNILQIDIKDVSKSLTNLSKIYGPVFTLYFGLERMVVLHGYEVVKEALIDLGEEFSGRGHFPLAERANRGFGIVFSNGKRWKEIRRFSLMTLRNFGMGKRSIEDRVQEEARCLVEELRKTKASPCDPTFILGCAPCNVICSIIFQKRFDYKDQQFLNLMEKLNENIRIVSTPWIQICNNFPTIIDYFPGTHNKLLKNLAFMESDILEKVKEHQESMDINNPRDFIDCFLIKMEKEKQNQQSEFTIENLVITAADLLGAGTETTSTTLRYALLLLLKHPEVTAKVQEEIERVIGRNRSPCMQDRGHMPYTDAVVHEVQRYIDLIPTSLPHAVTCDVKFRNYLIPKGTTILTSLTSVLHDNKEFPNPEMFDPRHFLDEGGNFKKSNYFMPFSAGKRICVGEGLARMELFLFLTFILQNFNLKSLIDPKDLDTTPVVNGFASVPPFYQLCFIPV
CYP2C9, sequence (P11712 whole entry): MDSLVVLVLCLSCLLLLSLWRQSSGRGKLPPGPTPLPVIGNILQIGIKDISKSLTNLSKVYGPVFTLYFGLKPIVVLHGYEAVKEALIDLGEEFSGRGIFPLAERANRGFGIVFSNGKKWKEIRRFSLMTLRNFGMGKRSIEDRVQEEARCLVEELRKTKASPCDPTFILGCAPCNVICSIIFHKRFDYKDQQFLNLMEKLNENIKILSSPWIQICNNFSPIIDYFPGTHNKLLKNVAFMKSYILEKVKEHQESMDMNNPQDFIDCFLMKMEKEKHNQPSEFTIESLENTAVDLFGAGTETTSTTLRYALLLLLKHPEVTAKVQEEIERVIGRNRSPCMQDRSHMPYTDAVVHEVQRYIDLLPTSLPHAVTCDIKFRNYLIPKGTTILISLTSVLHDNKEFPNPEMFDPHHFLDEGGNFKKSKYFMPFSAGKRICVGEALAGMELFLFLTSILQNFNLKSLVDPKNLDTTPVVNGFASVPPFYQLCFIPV

IC50 (CYP2C9): > 15 µM | IC50 (CYP1A2): > 40 µM | IC50 (CYP2D6): > 40 µM | IC50 (CYP3A4): > 40 µM | IC50 (CYP2C19): ~10 µM | solubility [1]: ~40 mg/mL (≈ 104 mM)
SMILES: Cc1ncccc1Oc1ncnc(OC2CCN(C(=O)OC(C)C)CC2)c1C [4-[5-methyl-6-(2-methyl-pyridin-3-yloxy)-pyrimidin-4-yloxy]-piperidine-1-carboxylic acid isopropyl ester]
Mean % Inhibition of Glucose Excursion (Male Sprague Dawley rats; 0.3 mg/Kg p.o.): 22% | Mean % Inhibition of Glucose Excursion (Male Sprague Dawley rats; 3 mg/Kg p.o.): 24% | Mean % Inhibition of Glucose Excursion (Male Sprague Dawley rats; 30 mg/Kg p.o.): 70%
